Experimental data taken from patent US8586743B2, “Labeling reagents and methods of their use” (Life Technologies Corporation, priority 2007, dated 2013).

How the values were obtained:
[1] = Hydrolysis half-life by HPLC (percent hydrolysis) at room temperature
Procedure: (§1) Samples were incubated at room temperature in the indicated solution.
(§2) 2-(6-amino-3-iminio-4,5-disulfonato-3H-xanthen-9-yl)benzoate, comprising an SDP ester was prepared and compared to commercially available 2-(6-amino-3-iminio-4,5-disulfonato-3H-xanthen-9-yl)benzoate comprising a succinimidyl ester (SE) and 2-(6-amino-3-iminio-4,5-disulfonato-3H-xanthen-9-yl)benzoate comprising a TFP for hydrolytic stability in 25 mM Pi buffer pH 8.6.

[2] = buffer, pH 8.6
Procedure: as §1, §2

[3] = phosphate buffer with imidazole, pH 8.6

half-life ([1]; DMSO)	half-life ([1]; HEPES buffer, pH 8.2)	half-life ([1]; Tris buffer with NaN3, pH 8.6)	half-life ([1]; Tris buffer, pH 7)	half-life ([1]; Tris buffer, pH 8.6)	half-life ([1]; borate buffer, pH 8.6)	half-life [1, 3]	half-life ([1]; phosphate buffer, pH 7.2)	half-life ([1]; phosphate buffer, pH 8.6)	half-life ([1]; water)	half-life (hydrolytic stability) [2]	SMILES
384 h	159 h	1.58 h	1020 h	77 h	3.5 h	0.633 h	245 h	28 h	504 h	28 h	N=c1ccc2c(-c3ccc(C(=O)Oc4c(Cl)cc(S(=O)(=O)O)cc4Cl)cc3C(=O)O)c3ccc(N)c(S(=O)(=O)O)c3oc-2c1S(=O)(=O)O [Compound 102]
–	–	–	–	–	–	–	–	17 h	–	–	N=c1ccc2c(-c3cc(C(=O)Oc4c(Cl)cc(S(=O)(=O)O)cc4Cl)ccc3C(=O)O)c3ccc(N)c(S(=O)(=O)O)c3oc-2c1S(=O)(=O)O [Compound 104]
–	–	–	–	–	–	–	–	1.7 h	–	–	CC1(C)C(/C=C/C=C/C=C2\N(CCCS(=O)(=O)O)c3ccc(S(=O)(=O)[O-])cc3C2(C)CCCCCC(=O)Oc2c(Cl)cc(S(=O)(=O)O)cc2Cl)=[N+](CCCS(=O)(=O)O)c2ccc(S(=O)(=O)O)cc21 (stereo not shown) [Compound 114]
–	6.5 h	< 0.0167 h	13.9 h	2.32 h	< 0.0833 h	< 0.0333 h	2.88 h	1.3 h	–	–	N=c1ccc2c(-c3ccc(C(=O)Oc4c(F)c(F)cc(F)c4F)cc3C(=O)O)c3ccc(N)c(S(=O)(=O)O)c3oc-2c1S(=O)(=O)O [Compound 120, reference compound]
–	–	–	–	–	–	–	–	1.75 h	–	–	CC1(C)C(/C=C/C=C/C=C2\N(CCCS(=O)(=O)O)c3ccc(S(=O)(=O)[O-])cc3C2(C)CCCCCC(=O)ON2C(=O)CCC2=O)=[N+](CCCS(=O)(=O)O)c2ccc(S(=O)(=O)O)cc21 (stereo not shown) [Compound 121, reference compound]
